{"source": "patent US11726082B2", "about": "“Screening method of drug candidates for treating disease using interaction between calcium and phosphatidylinositol phosphate” (Gachon University of Industry—Academic Cooperation …, priority 2017, dated 2023)", "molecules": {"B1": {"name": "PH domain of Akt protein: PH domain of Akt1 protein (SEQ. ID. NO: 13) (protein)", "chain": "MSDVAIVKEGWLHKRGEYIKTWRPRYFLLKNDGTFIGYKERPQDVDQREAPLNNFSVAQCQLMKTERPRPNTFIIRCLQWTTVIERTFHVETPEEREEWTTAIQTVADGLKKQEEEEMDFRSGSPSDNSGAEEMEVSLAKPKHR", "modifications": "PH domain of Akt protein"}}, "key": {"[1]": {"assay": "ITC of phospholipid liposomes with calcium", "format": "binding", "conditions": "liposome with POPC 80:20, 25° C., unlike POPS", "protocol": "Particularly, a protein solution was prepared by suspending a protein in 10 mM HEPES (pH 7.0). Phospholipid related ligand was titrated in the protein solution at 25° C. by using iTC200 micro calorimetry system (MicroCal Inc., USA), and the generated graph was corrected using Origin software (MicroCal Inc., USA). At this time, the phospholipid related ligand was prepared in the form of liposome by mixing POPC (1-palmitoyl-2-oleoyl-sn-glycero-3-phosphocholin) chloroform solution and POPS (1-palmitoyl-2-oleoyl-sn-glycero-3-phosphoserine), PI(3,4)P2 (1,2-dipalmotoyl-sn-glycero-3-phosphatidylinositol-3,4-[…]), PI(4,5)P2 (1,2-dipalmotoyl-sn-glycero-3-phosphatidylinositol-4,5-trisphosphate) or PI(3,4,5)P3 (1,2-dipalmotoyl-sn-glycero-3-phosphatidylinositol-3,4,5-trisphosphate) at the molar ratio of 80:20. The organic solvent was eliminated. The organic solvent was removed and a single layer lamellar was produced in HEPES (pH 7.0) using phospholipids."}, "Akt protein [2]": {"test_system": "Akt protein", "assay": "Western blotting of Akt protein phosphorylation in insulin-treated HepG2 cells", "format": "cell-based, human", "conditions": "PMA 0, 10, 50 or 100 nM or ionomycin 0, 1, 5, 10 or 20 μM, 100 nM insulin, dose-dependent", "protocol": "First, male C57BL/6 mice at 8 weeks were divided into the fasted group wherein the mice were fasted for 16 hours and the refed group wherein the mice were fasted for 16 hours and then fed for 4 hours. Each group was sub-divided into the high fat diet group (HFD) and the normal diet group (chow). The liver cells were extracted from the raised mice by the same manner and under the same conditions as described in Example 1. The extracted liver cells were lysed in a lysis buffer containing phosphatase (Sigma-Aldrich, USA) and protease inhibitor (Sigma-Aldrich, USA). Proteins extracted from 2 to 3 mg of the liver tissue were homogenized by using a tissue homogenizer (TissuLyser, Qiagen, USA) for 1.5 minutes at a frequency of 1/30 sec. The homogenized lysate was centrifuged at 12,000 rpm for 15 minutes and the supernatant was obtained. The amount of the extracted protein was quantified by using a protein assay kit (Bio-Rad Laboratories, USA), and at this time BSA was used as a standard sample. 3 mg of the protein was mixed with 6× loading buffer, followed by electrophoresis using 10% SDS-PAGE gel. The electrophoresed protein was transferred onto a polyvinylidene fluoride (PVDF) membrane by using a transfer buffer at 4° C. with 120 V for 1.5 hours. The PVDF membrane on which the protein was transferred was pretreated with a blocking buffer prepared by mixing 5% skim milk with TBS buffer (TBS-T, pH 7.6) supplemented with Tween 20 for 30 minutes, and the membrane was washed with TBS-T. The washed membrane was added with the antibody against Akt (Cell Signaling Technology, USA), Akt(T308) (Cell Signaling Technology, USA), Akt(S473) (Cell Signaling Technology, USA), FOXO3A (Cell Signaling Technology, USA), FOXO3A(S253) (Cell Signaling Technology, USA), GSK-3β (Cell Signaling Technology, USA) or GSK-3β(S9) (Cell Signaling Technology, USA) protein as a primary antibody, followed by reaction at 4° C. for 12 hours. At this time, the antibody against actin (Santa Cruz Biotechnology, USA) protein was used for the control group. Upon completion of the reaction, the secondary antibody corresponding to the primary antibody was added thereto, followed by reaction at room temperature for 30 minutes. The PVDF membrane was washed with TBS-T buffer three times. The washed PVDF membrane was added with ECL solution (Thermo Scientific, USA), followed by image observation.\nTo investigate the changes in insulin sensitivity when insulin was added to the fatty liver cell model constructed in vitro, the phosphorylations of those proteins that were involved in insulin signal transduction were examined. PA was added to the human HepG2 cells prepared in Example 3, followed by reaction for 24 hours. […]"}, "Akt protein [3]": {"test_system": "Akt protein", "assay": "Western blot of Akt activity with C2-Akt fusion protein and PI3K co-treated with PTEN or SHIP2", "format": "cell-based", "conditions": "cells with C2-Akt fusion protein and PI3K vectors co-treated with PTEN or SHIP2", "protocol": "Particularly, the experiment was performed by the same manner under the same conditions as described in Example 2 except that the vector expressing the C2-Akt fusion protein and the vector expressing PI3K protein were co-treated with PTEN or SHIP2 and the antibody against Akt (Cell Signaling Technology, USA), Akt(T308) (Cell Signaling Technology, USA), Akt(S473) (Cell Signaling Technology, USA), PI3K (Cell Signaling Technology, USA), PTEN (Cell Signaling Technology, USA) or SHIP2 (Upstate Biotechnology, USA) protein was used as the primary antibody."}, "PH domain of Akt protein": {"target": "T1, PH domain of Akt protein (Homo sapiens, UniProt P31749)", "T1 construct": "His6 (C); made in house; host or cells: E. coli BL21 (DE3), pET28a vector", "assay": "Protein-lipid binding assay (PIP-strips) with PH domain of Akt protein", "protocol": "E. coli BL21 (DE3) cells were transfected with a vector containing the PH domain of Akt protein, and the cells were cultured in 50 Ml of LB medium supplemented with 50 μg/Ml of kanamycin. The culture was performed at 37° C. for 8 hours. Upon completion of the culture, the cells were transferred into a 25° C. agitation incubator. The cells were cultured until OD600 reached 0.6 to 1.0, and then 1 mM IPTG (isopropyl-β-D-1-thiogalactopyranoside) was added thereto. 18 hours after the addition of IPTG, centrifugation was performed at 7,000×g at 4° C. for 10 minutes to obtain cells. Sonication equilibrium buffer (150 mM NaCl, 50 mM Tris-HCl, pH 7.6) was added to the obtained cells. The cells added with the sonication equilibrium buffer were lysed by sonication. The PH domain of Akt protein was purified from the cell lysate by […] using nickel-nitrilotriacetic acid and HiLoad Superdex-200 column (GE Healthcare life science, USA). The purity of the purified protein was examined by SDS-PAGE (sodium dodecyl sulfate polyacrylamide gel electrophoresis).\nParticularly, the analysis was performed by using membrane-immobilized lipid strips (PIP-strips, Echelon Biosciences Inc., USA). […]"}, "CHO cells": {"test_system": "CHO cells", "assay": "Migration of mCherry-tagged PH or C2 domain to the cell membrane, fluorescence microscopy", "format": "cell-based", "from_the_text": "First, the PH domain of Akt1 protein or C2 domain of PKCβ protein was obtained by PCR using the primers consisting of the nucleotide sequences represented by […]. The obtained PCR product was cloned in pmCherry-C1 vector (Takara Clontech, Japan) by the conventional cloning method. CHO cells were transfected with the prepared vector by using lipofectamine according to the manufacturer's protocol. The transfected cells were selected by using blastidicin. Then, mCherry positive cells were confirmed by flow cytometry.\nPMA at the concentration of 100 nM, ionomycin at the concentration of 10 μM or insulin at the concentration of 100 nM was added to the cells expressing the PH domain of Akt1 protein or the C2 domain of PKCβ protein and the location of the expressed protein was confirmed by fluorescence microscopy."}}, "note": "“Also recorded” adds a separate entry of the source."}
{"molecule": "CCCCCCCCCCCCCCCC(=O)OCC(COP(=O)(O)OC1C(O)C(O)C(OP(=O)(O)O)C(OP(=O)(O)O)C1O)OC(=O)CCCCCCCCCCCCCCC", "note": "(stereo not drawn) [PI(3,4)P2, 1,2-dipalmotoyl-sn-glycero-3-phosphatidylinositol-3,4-triphosphate]", "values": [{"measurement": "binding to calcium", "setting": "[1]", "result": "high affinity; also recorded: strong binding force"}]}
{"molecule": "CCCCCCCCCCCCCCCC(=O)OCC(COP(=O)(O)OC1C(O)C(OP(=O)(O)O)C(OP(=O)(O)O)C(OP(=O)(O)O)C1O)OC(=O)CCCCCCCCCCCCCCC", "note": "(stereo not drawn) [PI(3,4,5)P3, 1,2-dipalmotoyl-sn-glycero-3-phosphatidylinositol-3,4,5-trisphosphate]", "values": [{"measurement": "binding to calcium", "setting": "[1]", "result": "high affinity; also recorded: strong binding force"}]}
{"molecule": "CCCCCCCCCCCCCCCC(=O)OCC(COP(=O)(O)OC1C(O)C(O)C(OP(=O)(O)O)C(OP(=O)(O)O)C1O)OC(=O)CCCCCCCCCCCCCCC", "note": "(stereo not drawn) [PI(4,5)P2, 1,2-dipalmotoyl-sn-glycero-3-phosphatidylinositol-4,5-trisphosphate]", "values": [{"measurement": "binding to calcium", "setting": "[1]", "result": "high affinity; also recorded: strong binding force"}]}
{"molecule": "CCCCCCCCCCCCCC(=O)O[C@@H]1[C@@H](C)[C@@]2(O)[C@@H](C=C(CO)C[C@]3(O)C(=O)C(C)=C[C@@H]23)[C@@H]2C(C)(C)[C@]12OC(C)=O", "note": "[PMA, phorbol myristate acetate]", "values": [{"measurement": "phosphorylation of Akt protein", "setting": "Akt protein [2]", "result": "significantly inhibited"}]}
{"molecule": "C[C@H](CCC(=O)O)C[C@H](C)C[C@H](C)C(=O)/C=C(\\O)[C@H](C)C[C@H](C)C/C=C/[C@@H](C)[C@@H](O)[C@@H](C)[C@@H](O)C[C@@H]1CC[C@@](C)([C@H]2CC[C@@](C)([C@@H](C)O)O2)O1", "note": "[ionomycin]", "values": [{"measurement": "phosphorylation of Akt protein", "setting": "Akt protein [2]", "result": "significantly inhibited"}]}
{"molecule": "PTEN: phosphatase and tensin homolog, co-treated", "values": [{"measurement": "Akt protein activity", "setting": "Akt protein [3]", "result": "reduced"}]}
{"molecule": "B1", "values": [{"measurement": "binding to PI(3,4)P2 or PI(3,4,5)P3", "setting": "PH domain of Akt protein", "result": "bound"}, {"measurement": "migration to the cell membrane", "setting": "CHO cells; addition of insulin 100 nM", "result": "ted to the cell membrane"}, {"measurement": "migration to the cell membrane", "setting": "CHO cells; increased intracellular calcium concentration (PMA 100 nM, ionomycin 10 μM)", "result": "not observed; also recorded: inhibited"}]}
